Reference: patent US20090099127A1, “Nematicidal Compositions and Methods” (priority 2005, published 2009)

Tests used:
[1] = test system: Thrips; experiment: Thrips damage rating on cotton plants (Delta and Pineland variety 555), Example 1; type: in vivo; conditions: cotton variety 555, 1 = no damage, 5 = plant completely damaged (dead)
Text: This example illustrates the effect of a composition of the invention on cotton plant damage and plant height for cotton plants planted in soil known to have nematode (Rotylenchulus reniformis) pressure. The cotton plants utilized were commercially available Delta and Pineland variety 555.
The compositions described in Table 1 below were applied either as a seed treatment (Samples B, C, and E-G) or in furrow (Sample D) at the respective application rates set forth in Table 1.

[2] = test system: Thrips; experiment: Thrips damage rating on cotton plants (Fibermax cotton variety 960), Example 2; type: in vivo; conditions: 1 = no damage, 5 = dead
Text: This example illustrates the effect of the compositions from Table 1 for cotton plants planted in soil known to have nematode (Rotylenchulus reniformis) pressure. FIGS. 4 and 5 illustrate the Thrips damage ratings at three and four weeks, respectively, after planting. FIG. 6 illustrates the plant height seven weeks after planting. The cotton plants utilized were commercially available Fibermax cotton variety 960.

| Compound | Thrips Damage Rating ([1]; 3 weeks after planting) | Thrips Damage Rating ([1]; 4 weeks after planting) | Thrips Damage Rating ([2]; 3 weeks after planting) | Thrips Damage Rating ([2]; 4 weeks after planting) |
| --- | --- | --- | --- | --- |
| CNC(=O)O/N=C/C(C)(C)SC [Sample D, aldicarb] | 1.13 | 1.5 | 2.5 | 2.1 |
| O=[N+]([O-])NC1=NCCN1Cc1ccc(Cl)nc1 [E, imidacloprid] | 2.25 | 2.4 | 2.88 | 3 |
| O=[N+]([O-])NC1=NCCN1Cc1ccc(Cl)nc1 [B, imidacloprid] | 2 | 2.3 | 2.63 | 2.5 |
